Experimental findings from patent US12077503B2, “Substituted cyclic amides and their use as herbicides” (FMC CORPORATION, priority 2015, dated 2024) are described below.

Holding throughout (type): in vivo
The test system of assay [1] is ducksalad (Heteranthera limosa). As to the kind of experiment: Test B flooded paddy test. The conditions noted are these: Heteranthera limosa, Flood, 250 g ai/ha. An outline of the steps: (§1)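 2-leaf plants; pots flooded 3 cm over soil; cpd added to paddy water; depth held; greenhouse 13–15 d; visual rating vs controls, 0 = no effect, 100 = complete control.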
The test system of another assay is rice (Oryra sativa). As to the kind of experiment: Test B flooded paddy test. The conditions noted are these: Oryza sativa, Flood, 250 g ai/ha. The gist of the method:
as §1

Assay [2] concerns barnyardgrass (Echinochloa crus-galli). As to the kind of experiment: Test B flooded paddy test. The conditions noted are these: Echinochloa crus-galli, Flood, 250 g ai/ha. An outline of the steps: as §1
The test system of assay [3] is sedge, umbrella (small-flower umbrella sedge, Cyperus difformis). As to the kind of experiment: Test B flooded paddy test. The conditions noted are these: Cyperus difformis, Flood, 250 g ai/ha. An outline of the steps:
as §1

For assay [4], the system named is wheat (Triticum aestivum). The assay is described as follows: Test A postemergence. The conditions noted are these: Triticum aestivum, post-emergence, 240 h, Postemergence; for plant injury at 125 g/ha: 125 g ai/ha, visual rating about 10 d after treatment, read-out: Wheat plant response rating (0 to 100 scale); for plant injury at 500 g/ha: 500 g ai/ha, visual injury, 0 to 100 scale (0 no effect, 100 complete control), approx. 10 d, read-out: Plant response rating, Wheat. An outline of the steps:
(§2)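 Compounds were formulated in a non-phytotoxic solvent mixture with surfactant and applied as a preemergence directed soil spray after seeding, or sprayed postemergence over plants 2 to 10 cm tall at the one- to two-leaf stage. Evaluation after about 10 d compared treated with untreated controls, using a scale from 0 (no effect) to 100 (complete control).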

In another assay the test system is corn (Zea mays). As to the kind of experiment: Test A postemergence. The conditions noted are these: Zea mays, post-emergence, 240 h, Postemergence; for plant injury at 125 g/ha: 125 g ai/ha, visual rating about 10 d after treatment, read-out: Corn plant response rating (0 to 100 scale); for Corn plant response rating (crop injury, 0 = no effect, 100 = complete kill) at 500 g/ha: 500 g ai/ha, visual injury, 0 to 100 scale (0 no effect, 100 complete control), approx. 10 d. The gist of the method: as §2

A further assay deals with Kochia (Kochia scoparia). The assay is described as follows: Test A postemergence. The conditions noted are these: Bassia scoparia, post-emergence, 240 h, Postemergence; for pest or weed control at 125 g/ha: 125 g ai/ha, visual rating about 10 d after treatment, read-out: Kochia plant response rating (0 to 100 scale); for pest or weed control at 500 g/ha: 500 g ai/ha, visual injury, 0 to 100 scale (0 no effect, 100 complete control), approx. 10 d, read-out: Plant response rating, Kochia. An outline of the steps: as §2

Assay [5] concerns Galium (catchweed bedstraw, Galium aparine). As to the kind of experiment: Test A postemergence. The conditions noted are these: Galium, post-emergence, 240 h, Postemergence; for pest or weed control at 125 g/ha: 125 g ai/ha, visual rating about 10 d after treatment, read-out: Galium plant response rating (0 to 100 scale); for pest or weed control at 500 g/ha: 500 g ai/ha, visual injury, 0 to 100 scale (0 no effect, 100 complete control), approx. 10 d, read-out: Plant response rating, Galium. An outline of the steps:
as §2

Assay [6] has as its system blackgrass (Alopecurus myosuroides). The assay is described as follows: Test A postemergence. The conditions noted are these: Alopecurus myosuroides, post-emergence, 240 h, Postemergence; for pest or weed control at 125 g/ha: 125 g ai/ha, visual rating about 10 d after treatment, read-out: Blackgrass plant response rating (0 to 100 scale); for pest or weed control at 500 g/ha: 500 g ai/ha, visual injury, 0 to 100 scale (0 no effect, 100 complete control), approx. 10 d, read-out: Plant response rating, Blackgrass. The gist of the method:
as §2

The test system of assay [7] is giant foxtail (Setaria faberii). As to the kind of experiment: Test A postemergence. The conditions noted are these: Setaria faberi, post-emergence, 240 h, Postemergence; for pest or weed control at 125 g/ha: 125 g ai/ha, visual rating about 10 d after treatment, read-out: Foxtail, Giant plant response rating (0 to 100 scale); for pest or weed control at 500 g/ha: 500 g ai/ha, visual injury, 0 to 100 scale (0 no effect, 100 complete control), approx. 10 d, read-out: Plant response rating, Foxtail, Giant. The gist of the method:
as §2

Assay [8] concerns ragweed (common ragweed, Ambrosia elatior). The assay is described as follows: Test A postemergence. The conditions noted are these: Ambrosia artemisiifolia, post-emergence, 240 h, Postemergence; for pest or weed control at 125 g/ha: 125 g ai/ha, visual rating about 10 d after treatment, read-out: Ragweed plant response rating (0 to 100 scale); for pest or weed control at 500 g/ha: 500 g ai/ha, visual injury, 0 to 100 scale (0 no effect, 100 complete control), approx. 10 d, read-out: Plant response rating, Ragweed. An outline of the steps: as §2

For assay [9], the system named is ryegrass, Italian (Italian ryegrass, Lolium multiflorum). As to the kind of experiment: Test A postemergence. The conditions noted are these: Lolium multiflorum, post-emergence, 240 h, Postemergence; for pest or weed control at 125 g/ha: 125 g ai/ha, visual rating about 10 d after treatment, read-out: Ryegrass, Italian plant response rating (0 to 100 scale); for pest or weed control at 500 g/ha: 500 g ai/ha, visual injury, 0 to 100 scale (0 no effect, 100 complete control), approx. 10 d, read-out: Plant response rating, Ryegrass, Italian. An outline of the steps: as §2

For assay [10], the system named is pigweed (Amaranthus retroflexus). The assay is described as follows: Test A postemergence. The conditions noted are these: Amaranthus retroflexus, post-emergence, 240 h, Postemergence; for pest or weed control at 125 g/ha: 125 g ai/ha, visual rating about 10 d after treatment, read-out: Pigweed plant response rating (0 to 100 scale); for pest or weed control at 500 g/ha: 500 g ai/ha, visual injury, 0 to 100 scale (0 no effect, 100 complete control), approx. 10 d, read-out: Plant response rating, Pigweed. The gist of the method: as §2

For assay [11], the system named is barnyardgrass (Echinochloa crus-galli). As to the kind of experiment: Test A postemergence. The conditions noted are these: Echinochloa crus-galli, post-emergence, 240 h, Postemergence; for pest or weed control at 125 g/ha: 125 g ai/ha, visual rating about 10 d after treatment, read-out: Barnyardgrass plant response rating (0 to 100 scale, 0 no effect, 100 complete control); for pest or weed control at 500 g/ha: 500 g ai/ha, visual injury, 0 to 100 scale (0 no effect, 100 complete control), approx. 10 d, read-out: Plant response rating, Barnyardgrass. The gist of the method: as §2

The mark [12] stands for this setting: 360 h, visually evaluated after 13 to 15 d, read-out: Plant response rating, Ducksalad (0 to 100 scale where 0 is no effect and 100 is complete control).
Setting [13] is: 360 h, visually evaluated after 13 to 15 d, read-out: Plant response rating, Rice (0 to 100 scale where 0 is no effect and 100 is complete control).
[14] abbreviates: 360 h, visually evaluated after 13 to 15 d, read-out: Plant response rating, Barnyardgrass (0 to 100 scale where 0 is no effect and 100 is complete control).
The mark [15] stands for this setting: 360 h, visually evaluated after 13 to 15 d, read-out: Plant response rating, Sedge, Umbrella (0 to 100 scale where 0 is no effect and 100 is complete control).

Like-named read-outs stand apart in the source and are kept apart here.

For `CN1C[C@H](c2ccc(C(F)(F)F)nc2)[C@@H](C(=O)Nc2cccc(F)c2F)C1=O` [Compound 1372], the pest or weed control at 250 g/ha was 85% in assay [1] (setting [12]), 40% in the assay with rice (Oryra sativa) (setting [13]), 80% in assay [2] (setting [14]) and 0% in assay [3] (setting [15]). Also, the plant injury at 125 g/ha (in [4]; in the assay on corn (Zea mays)) was 70% each time. Also, the plant injury at 500 g/ha in [4] stood at 90%. Moreover, the Corn plant response rating (crop injury, 0 = no effect, 100 = complete kill) at 500 g/ha in the assay with corn (Zea mays) was 90%. Also, the pest or weed control at 125 g/ha was determined as 70% with Kochia (Kochia scoparia); 60% in [5]; 50% in assay [6]; 90% in [7]; 60% in [8]; 20% in assay [9]. Further, the pest or weed control at 125 g/ha in assay [10] was found to be 60%. Moreover, the pest or weed control at 500 g/ha in the assay on Kochia (Kochia scoparia) was determined as 80%; in assay [5] it was 70%; in assay [6], 70%; in [7] it was 90%; in assay [8], 60%; in [9] it was 30%. In assay [10], the pest or weed control at 500 g/ha stood at 80%.
With `CN1CC[C@H](c2cccc(C(F)(F)F)c2)[C@@H](C(=O)Nc2cccc(F)c2F)C1=O` [Compound 1330], the pest or weed control at 250 g/ha in assay [1] (setting [12]) worked out at 90%; in the assay on rice (Oryra sativa) (setting [13]) it was 0%; in assay [2] (setting [14]) it was 85%; in assay [3] (setting [15]) it was 0%. Moreover, the plant injury at 125 g/ha in assay [4] was 50%; in the assay with corn (Zea mays) it was 90%. The plant injury at 500 g/ha in [4] came to 70%. Further, the Corn plant response rating (crop injury, 0 = no effect, 100 = complete kill) at 500 g/ha in the assay with corn (Zea mays) amounted to 0%. Besides, the pest or weed control at 125 g/ha in assay [11] turned out to be 90%; in the assay on Kochia (Kochia scoparia) it was 0%; in assay [5], 30%; in assay [6], 50%; in [7], 90%; in [8] it was 0%. Moreover, the pest or weed control at 125 g/ha in [9] and in [10] was 0% in each case. In addition, the pest or weed control at 500 g/ha is 90% in assay [11]; 20% in the assay on Kochia (Kochia scoparia); 30% in [5]; 70% in [6]; 90% in assay [7]; 20% in assay [8]. Besides, the pest or weed control at 500 g/ha was determined as 20% in assay [9] and 0% in [10].
As for `CN1C[C@H](c2cc(C(F)(F)F)cs2)[C@@H](C(=O)Nc2cccc(F)c2F)C1=O` [Compound 1377], the pest or weed control at 250 g/ha in [1] (setting [12]) is 90%; in the assay on rice (Oryra sativa) (setting [13]) it was 15%; in [2] (setting [14]), 60%; in assay [3] (setting [15]), 0%. For the same compound, the plant injury at 125 g/ha in assay [4] stood at 30%; in the assay on corn (Zea mays), 50%. The plant injury at 500 g/ha in [4] was 60%. The same compound displayed a Corn plant response rating (crop injury, 0 = no effect, 100 = complete kill) at 500 g/ha in the assay with corn (Zea mays) of 80%. Also, the pest or weed control at 125 g/ha in [11] turned out to be 90%; with Kochia (Kochia scoparia) it was 50%; in [5] it was 40%; in [6] it was 20%; in assay [7], 80%; in [8] it was 20%. The pest or weed control at 125 g/ha was determined as 30% in assay [9] and 20% in assay [10]. In addition, the pest or weed control at 500 g/ha in assay [11] amounted to 90%; with Kochia (Kochia scoparia), 70%; in assay [5], 60%; in assay [6], 60%; in assay [7] it was 80%; in [8], 60%. Further, the pest or weed control at 500 g/ha in [9] was found to be 60%; in assay [10] it was 40%.
Take `COc1cc([C@H]2CN(C)C(=O)[C@@H]2C(=O)Nc2ccccc2F)ccc1F` [Compound 1298]: the pest or weed control at 250 g/ha in assay [1] (0 to 100 scale where 0 is no effect and 100 is complete control, read-out: Ducksalad plant response rating) worked out at 80%; in the assay on rice (Oryra sativa) (0 to 100 scale where 0 is no effect and 100 is complete control, read-out: Rice plant response rating) it was 15%; in assay [2] (0 to 100 scale where 0 is no effect and 100 is complete control, read-out: Barnyardgrass plant response rating), 50%; in assay [3] (0 to 100 scale where 0 is no effect and 100 is complete control, read-out: Sedge, Umbrella plant response rating), 0%. The plant injury at 125 g/ha (in [4]; with corn (Zea mays)) was 0% each time. Moreover, the plant injury at 500 g/ha in assay [4] was 20%. In the assay on corn (Zea mays), this compound returned a Corn plant response rating (crop injury, 0 = no effect, 100 = complete kill) at 500 g/ha of 0%. Besides, the pest or weed control at 125 g/ha is 80% in assay [11]; 0% in the assay on Kochia (Kochia scoparia); 0% in [5]; 0% in assay [6]; 70% in assay [7]; 0% in assay [8]. Besides, the pest or weed control at 125 g/ha in [9] and in assay [10] was 0% in each case. For the same compound, the pest or weed control at 500 g/ha stood at 80% in assay [11]; 0% in the assay on Kochia (Kochia scoparia); 20% in assay [5]; 0% in [6]; 90% in assay [7]; 0% in [8]. For the same compound, the pest or weed control at 500 g/ha in assay [9] and in assay [10] was 0% throughout.
